Source: US20030165545A1, “Ophthalmic compositions including oil-in-water emulsions, and methods for making and using same” (Allergan, Inc., priority 2002, published 2003)
Like-named read-outs stand apart in the source and are kept apart here.

System: Intra Ocular Pressure
Details: about 0.131% in a composition of Example 1
Protocol: Approximately 0.05 mL of the composition is administered directly to the eye at time 0.

Question: `Brc1c(NC2=NCCN2)ccc2nccnc12` [5-bromo-6-(2-imidozolin-2-ylamino) quinoxaline] was tested. Which “percent change of Intra Ocular Pressure (mm Hg)” value (from here on “percent change”) (1 hr after about 0.05 mL to the eye) did it give?
Answer: −10.4%

Question: And the “percent change” value (2 hr after about 0.05 mL to the eye)?
Answer: −16.0%

Question: And the “percent change” value (4 hr after about 0.05 mL to the eye)?
Answer: −09.5%

Question: And the “percent change” value (6 hr after about 0.05 mL to the eye)?
Answer: −09.4%
